Laboratory results published in patent US20150110845A1, “ANTIMICROBIAL POLYNUCLEOTIDE-TEMPLATED METAL NANOCLUSTER” (priority 2013, published 2015).
In brackets after ≈: the same amount, converted by molar mass.

How the values were obtained:
human A549 cells = experiment: WST-1 cytotoxicity assay; type: cell-based; settings: compared at 44 μM, 4 hours at 37° C.
Experimental: The cytotoxicity of the silver-containing species were tested against human A549 cells (from the lungs) using the WST-1 Assay (manufactured by Roche). The silver-bearing species were diluted to different extents and allowed to incubate with the human cells at 37° C. for 4 hours. In the presence of dead cells, the enzymatic assay gave a pink coloured solution (as shown by the box in FIG. 4A), while the living cells gave a brown solution (cells that are outside the box region in FIG. 4A).
The percentage of human dead cells can be quantified spectroscopically by measuring the optical density of the solution at a wavelength of 440 nm. To examine the antimicrobial potency and cytotoxicity of silver in different formulations (AgNPs, DNA-templated AgNCs and AgNO3), the percentage of bacteria cells inhibited (y-axis representing the antibacterial potency) was plotted against the percentage of human A549 cells killed (x-axis representing the eukaryotic cytotoxicity) in FIG. 4B. Here, the relative percentages of human A549 cells killed were compared at a concentration of 44 μM for all silver-containing species.

[1] = test system: multidrug-resistant bacteria P. aeruginosa; experiment: Inhibition of P. aeruginosa growth in solution culture; type: cell-based, Pseudomonas aeruginosa; settings: overnight at 37° C., shaking 250 rpm; AgNO3 180 μM
Experimental: Other than DNA-based surface chemistry, the size-dependent controlled-release of Ag^+ from the DNA-templated AgNCs (sub-2nm) were also compared with the citrate-capped silver nanoparticles (AgNPs, 15 nm) and AgNO3 (free flow of Ag^+) against bacterial growth under the same experimental conditions. AgNPs were synthesized based on the Turkevich method whereby an aqueous solution of trisodium citrate was brought to boil, followed by addition of AgNO3 aq solution (310 μM). The reaction was then boiled till a yellow solution was obtained. For the AgNO3, 180 μM of AgNO3 was used for this example.

P. aeruginosa = settings: J. Antimicrob. Chemother., 1999, 43, 345-349; cited from earlier work
B. cenocepacia = settings: J. Antimicrob. Chemother., 2002, 50, 265-269; cited from earlier work

O=[N+]([O-])[O-].[Ag+] [AgNO3]
cytotoxicity to human A549 cells (human A549 cells): high toxicity
P. aeruginosa growth inhibited [1]: up to 97%

O=C(O)c1cn(C2CC2)c2cc(N3CCNCC3)c(F)cc2c1=O [ciprofloxacin]
MIC50 (P. aeruginosa): 0.27 µM (≈ 0.0895 µg/mL)
MIC50 (B. cenocepacia): 0.36 µM (≈ 0.119 µg/mL)
